Test system: Plutella xylostella
Assay: Plutella xylostella greenhouse spray test on cauliflower and Bt cauliflower (cry9C)
Type: in vivo
Method: Seven-week-old cauliflower plants (ordinary cauliflower, variety: Marner Allfrüh) and Bt cauliflower ([…], contains cry9C) were sprayed with the test insecticides with the aid of a track sprayer (200 l/ha). After drying, each of the plants was infected with 5 L2 larvae and 5 L3 larvae of Plutella xylostella. After 2, 4 and 7 days (DAA), feeding damage and mortality were scored. The test was carried out in a greenhouse at 23° C. and a relative atmospheric humidity of 60%.

[1] = 3 g active substance/ha, 2 DAA, Bt cauliflower
[2] = 3 g active substance/ha, 2 DAA, cauliflower
[3] = 3 g active substance/ha, 4 DAA, Bt cauliflower
[4] = 3 g active substance/ha, 4 DAA, cauliflower
[5] = 3 g active substance/ha, 7 DAA, Bt cauliflower
[6] = 3 g active substance/ha, 7 DAA, cauliflower
[7] = 10 g active substance/ha, 2 DAA, Bt cauliflower
[8] = 10 g active substance/ha, 2 DAA, cauliflower
[9] = 10 g active substance/ha, 4 DAA, Bt cauliflower
[10] = 10 g active substance/ha, 4 DAA, cauliflower
[11] = 10 g active substance/ha, 7 DAA, Bt cauliflower
[12] = 10 g active substance/ha, 7 DAA, cauliflower
[13] = 30 g active substance/ha, 2 DAA, Bt cauliflower
[14] = 30 g active substance/ha, 2 DAA, cauliflower
[15] = 30 g active substance/ha, 4 DAA, Bt cauliflower
[16] = 30 g active substance/ha, 4 DAA, cauliflower
[17] = 30 g active substance/ha, 7 DAA, Bt cauliflower
[18] = 30 g active substance/ha, 7 DAA, cauliflower
[19] = 100 g active substance/ha, 2 DAA, Bt cauliflower
[20] = 100 g active substance/ha, 2 DAA, cauliflower
[21] = 100 g active substance/ha, 4 DAA, Bt cauliflower
[22] = 100 g active substance/ha, 4 DAA, cauliflower
[23] = 100 g active substance/ha, 7 DAA, Bt cauliflower
[24] = 100 g active substance/ha, 7 DAA, cauliflower
[25] = 1 g active substance/ha, 2 DAA, Bt cauliflower
[26] = 1 g active substance/ha, 2 DAA, cauliflower
[27] = 1 g active substance/ha, 4 DAA, Bt cauliflower
[28] = 1 g active substance/ha, 4 DAA, cauliflower
[29] = 1 g active substance/ha, 7 DAA, Bt cauliflower
[30] = 1 g active substance/ha, 7 DAA, cauliflower

Question: How did the “% feeding damage” value [1] turn out when CCc1nn(C)c(C(=O)NCc2ccc(Oc3ccc(C)cc3)cc2)c1Cl [Tolfenpyrad] was run?
Answer: 3%

Question: And the “% mortality” value [1]?
Answer: 10%

Question: And the “% feeding damage” value [2]?
Answer: 10%

Question: What about the “% mortality” value [2] of the same molecule?
Answer: 0%

Question: And the “% feeding damage” value [3]?
Answer: 10%

Question: And the “% mortality” value [3]?
Answer: 30%

Question: And the “% feeding damage” value [4]?
Answer: 10%

Question: And the “% mortality” value [4]?
Answer: 0%

Question: And the “% feeding damage” value [5]?
Answer: 10%

Question: And the “% mortality” value [5]?
Answer: 50%

Question: And the “% feeding damage” value [6]?
Answer: 10%

Question: What about the “% mortality” value [6] of the same molecule?
Answer: 0%

Question: What about the “% feeding damage” value [7] of the same molecule?
Answer: 10%

Question: What about the “% mortality” value [7] of the same molecule?
Answer: 0%

Question: What about the “% feeding damage” value [8] of the same molecule?
Answer: 10%

Question: What about the “% mortality” value [8] of the same molecule?
Answer: 0%

Question: And the “% feeding damage” value [9]?
Answer: 10%

Question: And the “% mortality” value [9]?
Answer: 50%

Question: What about the “% feeding damage” value [10] of the same molecule?
Answer: 10%

Question: What about the “% mortality” value [10] of the same molecule?
Answer: 0%

Question: And the “% feeding damage” value [11]?
Answer: 10%

Question: What about the “% mortality” value [11] of the same molecule?
Answer: 50%

Question: What about the “% feeding damage” value [12] of the same molecule?
Answer: 10%

Question: And the “% mortality” value [12]?
Answer: 0%

Question: What about the “% feeding damage” value [13] of the same molecule?
Answer: 0%

Question: And the “% mortality” value [13]?
Answer: 60%

Question: And the “% feeding damage” value [14]?
Answer: 10%

Question: And the “% mortality” value [14]?
Answer: 0%

Question: What about the “% feeding damage” value [15] of the same molecule?
Answer: 0%

Question: What about the “% mortality” value [15] of the same molecule?
Answer: 100%

Question: And the “% feeding damage” value [16]?
Answer: 10%

Question: What about the “% mortality” value [16] of the same molecule?
Answer: 0%

Question: What about the “% feeding damage” value [17] of the same molecule?
Answer: 0%

Question: And the “% mortality” value [17]?
Answer: 100%

Question: What about the “% feeding damage” value [18] of the same molecule?
Answer: 10%

Question: And the “% mortality” value [18]?
Answer: 0%

Question: And the “% feeding damage” value [19]?
Answer: 10%

Question: And the “% mortality” value [19]?
Answer: 20%

Question: And the “% feeding damage” value [20]?
Answer: 5%

Question: And the “% mortality” value [20]?
Answer: 0%

Question: What about the “% feeding damage” value [21] of the same molecule?
Answer: 10%

Question: What about the “% mortality” value [21] of the same molecule?
Answer: 100%

Question: And the “% feeding damage” value [22]?
Answer: 5%

Question: What about the “% mortality” value [22] of the same molecule?
Answer: 20%

Question: And the “% feeding damage” value [23]?
Answer: 10%

Question: What about the “% mortality” value [23] of the same molecule?
Answer: 100%

Question: What about the “% feeding damage” value [24] of the same molecule?
Answer: 5%

Question: What about the “% mortality” value [24] of the same molecule?
Answer: 0%

Question: What does the source list for CS/C(C)=N\OC(=O)N(C)SN(C)C(=O)O/N=C(\C)SC [Thiodicarb]?
Answer: % feeding damage [25]: 0%; % mortality [25]: 100%; % feeding damage [26]: 10%; % mortality [26]: 0%; % feeding damage [27]: 0%; % mortality [27]: 100%; % feeding damage [28]: 10%; % mortality [28]: 0%; % feeding damage [29]: 0%; % mortality [29]: 100%; % feeding damage [30]: 15%; % mortality [30]: 0%; % feeding damage [1]: 0%; % mortality [1]: 100%; % feeding damage [2]: 10%; % mortality [2]: 0%; % feeding damage [3]: 0%; % mortality [3]: 100%; % feeding damage [4]: 10%; % mortality [4]: 0%; % feeding damage [5]: 0%; % mortality [5]: 100%; % feeding damage [6]: 15%; % mortality [6]: 0%; % feeding damage [7]: 0%; % mortality [7]: 90%; % feeding damage [8]: 10%; % mortality [8]: 0%; % feeding damage [9]: 0%; % mortality [9]: 100%; % feeding damage [10]: 10%; % mortality [10]: 0%; % feeding damage [11]: 0%; % mortality [11]: 100%; % feeding damage [12]: 15%; % mortality [12]: 0%; % feeding damage [13]: 0%; % mortality [13]: 100%; % feeding damage [14]: 10%; % mortality [14]: 0%; % feeding damage [15]: 0%; % mortality [15]: 100%; % feeding damage [16]: 10%; % mortality [16]: 0%; % feeding damage [17]: 0%; % mortality [17]: 100%; % feeding damage [18]: 15%; % mortality [18]: 0%; % feeding damage [19]: 0%; % mortality [19]: 100%; % feeding damage [20]: 10%; % mortality [20]: 0%; % feeding damage [21]: 0%; % mortality [21]: 100%; % feeding damage [22]: 10%; % mortality [22]: 0%; % feeding damage [23]: 0%; % mortality [23]: 100%; % feeding damage [24]: 10%; % mortality [24]: 0%
